This assay relates to Human hair follicles in growth phase (anagen). As to the kind of experiment: Human hair follicle growth assay. Format: cell-based. The note with it: for Hair follicle length increase (mm), Treated: day 0 to day 7 in culture. How it is done: Human hair Follicle Growth Assay:
Human hair follicles in growth phase (anagen) were isolated from face-lift tissue (obtained from plastic surgeons) under dissecting scope using a scalpel and watchmakers forceps. The skin was sliced into thin strips exposing 2-3 rows of follicles that could readily be dissected. Follicles were placed into 0.5 ml William's E medium (Life Technologies, Gaithersburg, Md.) supplemented with 2 mM L-glutamine, 10 μg/ml insulin, 10 ng/ml hydrocortisone, 100 units of penicillin, 0.1 mg/ml streptomycin and 0.25 μg/ml amphotericin B. The follicles were incubated in 24-well plates (1 follicle/well) at 37° C. in an atmosphere of 5% CO2 and 95% air. Compounds are dissolved into dimethyl sulfoxide as 100-fold stock solution. The control hair follicles were treated with dimethyl sulfoxide without prostaglandin. The follicles were photographed in the 24-well plates under the dissecting scope at a power of 10×. Typically, image recordings were made on day 0 (day follicles were placed in culture), and again on day 7. The length of hair follicle was assessed using an image analysis software system. The growth of hair fiber was calculated by the subtracting the follicle length on day 0 from that determined on day 7.

[1] abbreviates: dose 50 μM, vs dimethyl sulfoxide control.
[2] abbreviates: dose 1 μM, dose-dependence study.
Setting [3] is: dose 5 μM, dose-dependence study.
The mark [4] stands for this setting: dose 10 μM, dose-dependence study.
Where [5] appears, read: dose 30 μM, vs dimethyl sulfoxide control.

In the case of `CCCCC[C@@](C)(O)/C=C/[C@H]1C(=O)C[C@H](O)[C@@H]1C/C=C\CCCC(=O)O` [15(R)-15-Methyl PGD2], the “Hair follicle length increase (mm), Treated” value (“Hair follicle length increase” below) (dose 50 μM) came out at 0.04 ± 0.05 mm. Under setting [1], the “% Reduction of human hair follicle growth” value (shortened to “% Reduction”) is given as 97.5 ± 3.1%.
Consider `CCCCC[C@](C)(O)/C=C/[C@H]1C(=O)C[C@H](O)[C@@H]1C/C=C\CCCC(=O)O` [15(S)-15-Methyl PGD2], for which the “Hair follicle length increase” value (dose 100 μM) turned out to be 0.08 ± 0.06 mm. Also, under “dose 100 μM, vs dimethyl sulfoxide control”, the “% Reduction” value worked out at 92.7 ± 5.5%.
In the case of `CCCCCC=CC=C1CCC(=O)C1C/C=C\CCCC(=O)O` (centres unmarked) [9,10-Dihydro-15-deoxy-^Δ12,14-PGJ2, 9,10-dihydro-15-deoxy-Δ^12,14-PGJ2], where the note is “dose 50 μM”, the “Hair follicle length increase” value was 0.02 ± 0.03 mm. Moreover, the “% Reduction” value under setting [1] is recorded as 98.8 ± 1.9%.
Turning to `CCCCC/C=C/C=C1/C(=O)C=C[C@@H]1C/C=C\CCCC(=O)O` [15-Deoxy-Δ^12,14-PGJ2], the “% Reduction” value is given as 0% under setting [2], 34.8% under setting [3], 94.3% under setting [4] and 94.7 ± 5.0% under setting [5]. Moreover, the “Growth of follicle (mm), Treated” value runs as follows: under setting [2], 1.42 ± 0.37 mm; under setting [3], 0.21 ± 0.13 mm; under setting [4], 0.08 ± 0.07 mm. In addition, the “Hair follicle length increase” value (dose 30 μM) amounted to 0.10 ± 0.09 mm.
On to `CCCCC(C)(C)[C@H](O)/C=C/[C@H]1C(=O)C[C@H](O)[C@@H]1C/C=C\CCCC(=O)O` [16,16-Dimethyl PGD2], for which, for the setting “dose 50 μM”, the “Hair follicle length increase” value came to 0.10 ± 0.05 mm. In addition, the “% Reduction” value under setting [1] is reported as 94.3 ± 2.8%.
Taken in the same sequence, the figures for `CCCCC/C=C/C=C1/C(=O)C[C@H](O)[C@@H]1C/C=C\CCCC(=O)O` [15-Deoxy-Δ^12,14-PGD2] were 0.10 ± 0.08 mm and 94.3 ± 4.5%.
Turning to `CCCCC[C@H](O)/C=C/[C@H]1C(=O)C=C[C@@H]1C/C=C\CCCC(=O)O` [PGJ2], the “Hair growth inhibition profile (dose dependence, in words)” value is listed as “dose dependent” and the “Reduction of human hair follicle growth (in words)” value is “reduce hair growth”. Under setting [2], the “% Reduction” value stood at 9.5% and the “Growth of follicle (mm), Treated” value worked out at 1.43 ± 0.34 mm. Under setting [3], the “% Reduction” value is listed as 34.8% and the “Growth of follicle (mm), Treated” value amounted to 1.03 ± 0.35 mm. In addition, under setting [4], the “% Reduction” value was determined as 68.4% and the “Growth of follicle (mm), Treated” value is reported as 0.50 ± 0.29 mm. Further, the “Hair follicle length increase” value (dose 30 μM) came out at 0.16 ± 0.25 mm. The “% Reduction” value under setting [5] came out at 91.5 ± 13%.
Regarding `CCCCC[C@H](O)/C=C/[C@H]1C(=O)C[C@H](O)[C@@H]1C/C=C\CCCC(=O)O` [PGD2, prostaglandin D2], the “Hair growth inhibition profile (dose dependence, in words)” value was “dose dependent” and the “Reduction of human hair follicle growth (in words)” value is reported as “significant reduction of human hair follicle growth”. For the same compound, under setting [2], the “% Reduction” value turned out to be 4.4% and the “Growth of follicle (mm), Treated” value amounted to 1.51 ± 0.28 mm. Under setting [3], the “% Reduction” value is on record as 12.7% and the “Growth of follicle (mm), Treated” value is reported as 1.38 ± 0.30 mm. For the same compound, under setting [4], the “% Reduction” value was found to be 38.0% and the “Growth of follicle (mm), Treated” value amounted to 0.98 ± 0.32 mm. Besides, the “Hair follicle length increase” value (dose 30 μM) worked out at 0.24 ± 0.10 mm. In addition, the “% Reduction” value under setting [5] worked out at 87.3 ± 5.0%.
With `O=C(O)CCC/C=C\C[C@H]1[C@@H](O)CC(=O)[C@@H]1/C=C/[C@@H](O)CCc1ccccc1` [17-Phenyl trinor PGD2], where the note is “dose 50 μM”, the “Hair follicle length increase” value worked out at 0.10 ± 0.12 mm. Besides, the “% Reduction” value under setting [1] came to 93.8 ± 7.4%.
Taken in the same sequence, the figures for `C=C1C[C@H](O)[C@H](C/C=C\CCCC(=O)O)[C@H]1/C=C/[C@@H](O)CCCCC` [11-Deoxy-11-methylene PGD2] were 1.11 ± 0.14 mm and 36.9 ± 8.0%.
`CCCCC[C@H](O)C/C=C1/C(=O)C=C[C@@H]1C/C=C\CCCC(=O)O` [Δ^12-PGJ2]: the “% Reduction” value amounted to 0.7% under setting [2], 10.6% under setting [3], 77.3% under setting [4] and 84.6 ± 24% under setting [5]. Also, the “Growth of follicle (mm), Treated” value under setting [2] was 1.40 ± 0.44 mm; the “Growth of follicle (mm), Treated” value under setting [3] stood at 1.26 ± 0.38 mm; the “Growth of follicle (mm), Treated” value under setting [4] is given as 0.32 ± 0.15 mm. Moreover, for the setting “dose 30 μM”, the “Hair follicle length increase” value was found to be 0.29 ± 0.46 mm.

The values are drawn from patent US20050112075A1, “Reduction of hair growth” (priority 2003, published 2005).
